In data set [1] the target is T1, recombinant human ALX receptor (Homo sapiens, UniProt P25090).
T1 construct: expressed in transfected cells; host or cells: HEK293 (HEK293-hALXR-Gα16)
T1 sequence (P25090 1-351): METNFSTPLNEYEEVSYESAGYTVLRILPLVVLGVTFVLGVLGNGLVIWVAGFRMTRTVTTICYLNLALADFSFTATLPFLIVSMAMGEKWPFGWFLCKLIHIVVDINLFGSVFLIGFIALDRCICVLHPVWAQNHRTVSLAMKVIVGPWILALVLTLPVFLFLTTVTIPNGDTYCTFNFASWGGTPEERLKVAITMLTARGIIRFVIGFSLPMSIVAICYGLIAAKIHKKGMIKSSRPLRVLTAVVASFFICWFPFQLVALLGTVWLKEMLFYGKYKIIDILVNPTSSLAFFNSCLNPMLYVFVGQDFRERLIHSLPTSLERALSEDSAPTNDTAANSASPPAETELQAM
Description: Intracellular calcium measurements (FLIPR), ALX receptor agonistic activity. The format is cell-based. To be noted: HEK293-hALXR-Gα16 cells; median of n replications; normalized to WKYMVm 10 nM; read-out: EC50, agonistic activity with respect to the ALX receptor. Here is the method: The ALX receptor agonistic activity of the compounds of formula (I) is determined in accordance with the following experimental method.
Intracellular Calcium Measurements:
Cells expressing recombinant human ALX receptor and the G-protein Gα16 (HEK293-hALXR-Gα16) were grown to 80% confluency in Growing Medium (GM). Cells were detached from culture dishes with a cell dissociation buffer (Invitrogen, 13151-014), and collected by centrifugation at 1′000 rpm at rt for 5 min in Assay Buffer (AB) (equal parts of Hank's BSS (Gibco, 14065-049) and DMEM without Phenol Red (Gibco, 11880-028)). After 60 min incubation at 37° C. under 5% CO2 in AB supplemented with 1 μM Fluo-4 (AM) (Invitrogen, F14202) and 20 mM HEPES (Gibco, 15630-056), the cells were washed and resuspended in AB. They were then seeded onto 384-well FLIPR assay plates (Greiner, 781091) at 50′000 cells in 70 μl per well and sedimented by centrifugation at 1′000 rpm for 1 min. Stock solutions of test compounds were made up at a concentration of 10 mM in DMSO, and serially diluted in AB to concentrations required for activation dose response curves. WKYMVm (Phoenix Peptides) was used as a reference agonist. […] Changes in fluorescence were monitored before and after the addition of test compounds at lex=488 nm and lem=540 nm. […]
In general terms: Calcium flux is commonly read through the fluorescence of an indicator in the cells.

Data set [2] in a line: Plasma stability assay, human serum. The data set is classed as in vitro ADME. Here is the method:
(§1) Rat or human serum adjusted at pH 7.4 with lactic acid or ammonium hydroxide, were equilibrated at 37° C. under orbital shaking in an incubator containing 5% CO2. The reaction was initiated by the addition of 1 μM of compounds (1.5 μl of 1 mM stock solution in DMSO in 1498.5 μl of plasma). At 0.01, 0.25, 0.5, 1, 2, 3, 4 and 6 h, aliquots (100 μl) were transferred in a 96 well plate containing 300 μl MeOH placed on ice to stop the reaction. After vortexing for 20 min at 1400 rpm on an Eppendorf thermomixer, the plates were centrifuged at 3220 g for 20 min at 4° C. and the supernatants were analyzed with LC-MS/MS. Calibration samples in plasma containing 0.1% of dichlorvos were prepared and analysed in parallel to the incubation samples to allow the quantification. Half lives (T1/2) in hours were then calculated. In addition the remaining concentration of the respective compound after time Tlast relative to the concentration at the beginning has been determined (table 2).

The nature of data set [3]: Plasma stability assay, rat serum. The format is in vitro ADME. Here is the method:
as §1

This is an account of results in patent US9533964B2, “Piperazine substituted bridged spiro[2.4]heptane derivatives as ALX receptor agonists” (Actelion Pharmaceuticals Ltd, priority 2013, dated 2017).

In general, EC50 refers to the concentration needed to bring the measured effect to its halfway point. One may read the half-life as the time in which the quantity being followed falls by half. Low values mean rapid decline, high ones slow decline. In the case of `Cc1ccc(C2(NC(=O)C3C(C(=O)NCCN4CCN(C)CC4)C4CCC3C43CC3)CC2)cc1` [Example 1, (5R)-N^5-(1-(p-tolyl)cyclopropyl)-(6R)-N^6-(2-(4-methylpiperazin-1-yl)ethyl)-(4S,7R)-[4,7-ethylene-spiro[2.4]heptane]-5,6-dicarboxamide], the EC50 in data set [1] came to 9.4 nM. Besides, the “remaining concentration at Tlast” value in data set [2] (Tlast 6 h, 1 μM, 37° C.) amounted to 82%; in data set [3] (Tlast 6 h, 1 μM, 37° C.) it was 100%. Also, the half-life at 1 μM in data set [2] (pH 7.4, 37° C.) is above 6 h; in data set [3] (pH 7.4, 37° C.) it was above 6 h.
